Reference: ChEMBL document CHEMBL1201862, “PubChem BioAssay data set” (2004)
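Values below derive from 48-hour exposures of cells grown in 96-well plates, with endpoints linearly interpolated between the two concentrations bracketing the appropriate inhibition level. GI50 is the concentration that inhibits growth by half.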 Active and inactive are the calls of the source. No stated cut-off is given here; in the data, active = GI50 up to about 1.1 µM and inactive = higher.

Experiments:
Assay in all cases: DTP human tumour cell line panel, 48 h
SK-MEL-2 = system: SK-MEL-2
A549 = system: A549
HOP-92 = system: HOP-92
LOX IMVI = system: LOX IMVI
NCI-H226 = system: NCI-H226
OVCAR-5 = system: OVCAR-5
UACC-257 = system: UACC-257
CCRF-CEM = system: CCRF-CEM
HCT-15 = system: HCT-15
SF-539 = system: SF-539
UACC-62 = system: UACC-62
SK-OV-3 = system: SK-OV-3
UO-31 = system: UO-31
HCC 2998 = system: HCC 2998
HOP-62 = system: HOP-62
SNB-75 = system: SNB-75
A498 = system: A498
CAKI-1 = system: CAKI-1
786-0 = system: 786-0

SMILES	GI50 (SK-MEL-2)	GI50 (A549)	GI50 (HOP-92)	GI50 (LOX IMVI)	GI50 (NCI-H226)	GI50 (OVCAR-5)	GI50 (UACC-257)	GI50 (CCRF-CEM)	GI50 (HCT-15) [µM]	GI50 (SF-539)	GI50 (UACC-62)	GI50 (SK-OV-3)	GI50 (UO-31)	GI50 (HCC 2998)	GI50 (HOP-62)	GI50 (SNB-75)	GI50 (A498)	GI50 (CAKI-1)	GI50 (786-0)
Cc1cn(C2CC(O)C(CO)C2C)c(=O)[nH]c1=O (stereo not drawn)	> 100 µM (inactive)	> 100 µM (inactive)	> 100 µM (inactive)	> 100 µM (inactive)	> 100 µM (inactive)	> 100 µM (inactive)	> 100 µM (inactive)	> 100 µM (inactive)	> 100	> 100 µM (inactive)	> 100 µM (inactive)	> 100 µM (inactive)	> 100 µM (inactive)	> 100 µM (inactive)	> 100 µM (inactive)	> 100 µM (inactive)			
CCNc1cnc2c(n1)c(=O)n(C)c(=O)n2C	> 100 µM (inactive)	> 100 µM (inactive)	> 100 µM (inactive)			> 100 µM (inactive)	> 100 µM (inactive)	> 100 µM (inactive)	> 100	> 100 µM (inactive)	> 100 µM (inactive)	> 100 µM (inactive)	> 100 µM (inactive)	> 100 µM (inactive)	> 100 µM (inactive)	48.9 µM (inactive)	> 100 µM (inactive)	> 100 µM (inactive)	
O=C1N/C(=N/N=C/c2c[nH]c3ccccc23)N/C1=C\c1cccs1	45.5 µM (inactive)	76.6 µM (inactive)	49 µM (inactive)	56.9 µM (inactive)	> 100 µM (inactive)	> 100 µM (inactive)	77.3 µM (inactive)	4.44 µM (inactive)	> 100	> 100 µM (inactive)	73.3 µM (inactive)	38.6 µM (inactive)	> 100 µM (inactive)		> 100 µM (inactive)	> 100 µM (inactive)	16.2 µM (inactive)	> 100 µM (inactive)	> 100 µM (inactive)
CCOP(=O)(OCC)C1C(=O)O[C@H]2CCCC[C@@H]12 (stereo partly drawn)	> 100 µM (inactive)	> 100 µM (inactive)		> 100 µM (inactive)		> 100 µM (inactive)	> 100 µM (inactive)	> 100 µM (inactive)	> 100	> 100 µM (inactive)	> 100 µM (inactive)	> 100 µM (inactive)		> 100 µM (inactive)	> 100 µM (inactive)	> 100 µM (inactive)	> 100 µM (inactive)	> 100 µM (inactive)	> 100 µM (inactive)
Cn1c(C(C#N)c2nc(Cl)ncc2Br)nc2ccccc21 (stereo not drawn)		> 100 µM (inactive)	> 100 µM (inactive)	> 100 µM (inactive)	> 100 µM (inactive)	> 100 µM (inactive)	> 100 µM (inactive)		> 100	44.5 µM (inactive)		> 100 µM (inactive)	> 100 µM (inactive)		> 100 µM (inactive)	82 µM (inactive)	> 100 µM (inactive)	> 100 µM (inactive)	> 100 µM (inactive)
CC1=NC=C(O)c2ccccc2O1	> 100 µM (inactive)	> 100 µM (inactive)	> 100 µM (inactive)	> 100 µM (inactive)			> 100 µM (inactive)	> 100 µM (inactive)	> 100	> 100 µM (inactive)	> 100 µM (inactive)	> 100 µM (inactive)	85.5 µM (inactive)	> 100 µM (inactive)	> 100 µM (inactive)		> 100 µM (inactive)		> 100 µM (inactive)
C/C(=N\NS(=O)(=O)c1ccccc1)c1ccccc1	> 100 µM (inactive)	> 100 µM (inactive)	> 100 µM (inactive)	> 100 µM (inactive)	> 80.4 µM (inactive)	> 100 µM (inactive)	> 100 µM (inactive)	> 100 µM (inactive)	> 100	> 100 µM (inactive)	> 100 µM (inactive)	> 100 µM (inactive)	> 100 µM (inactive)	> 100 µM (inactive)	> 100 µM (inactive)	> 100 µM (inactive)		> 100 µM (inactive)	
